According to PMC11277446, “Discovery of Cell-Permeable Allosteric Inhibitors of Liver Pyruvate Kinase: Design and Synthesis of Sulfone-Based Urolithins” (International Journal of Molecular Sciences, 2024):

Key:
[1] = target: T1, PKL (Homo sapiens, UniProt P30613); assay: Pyruvate kinase activity kinetic assay on HepG2 KO (PKL only) cell protein lysate; format: biochemical
T1 construct: HepG2 KO cells were lysed and protein lysated with CelLytic M; host or cells: HepG2 PKM CRISPR KO cells
Protocol: (§1) HepG2 KO cells were lysed and protein lysated with CelLytic M (C2978, Sigma-Aldrich, St. Louis, MO, USA) lysis buffer. The effect of 10 µM compounds on pyruvate kinase activity on protein lysate was measured with the Pyruvate Kinase Assay Kit (ab83432, Abcam, Cambridge, UK), followed by the manufacturer’s instructions. 2 × 10^4 HepG2 WT cells and 1 × 10^5 HepG2 KO cells were seeded into 96-well plates for a pyruvate kinase activity assay on cells. Drugs were treated at 20 µM concentration on the cell for 4 h and washed with 250 µL of PBS. Cells were lysed with 50 µL PK assay buffer (ab83432, Abcam) and started reaction and kinetic O.D measurement with 50 µL PK assay buffer that contained the assay component (ab83432, Abcam). O.D. values were measured with a microplate reader (Hidex Sense Beta Plus, Turku, Finland) at 570 nm wavelength.

[2] = target: T1, PKL; assay: as above; format: biochemical; settings: read-out: IC50 of PKL enzymatic activity inhibition
[3] = target: T2, PKL in HepG2 KO cells (Homo sapiens, UniProt P30613); assay: Pyruvate kinase activity assay on compound-treated HepG2 KO cells (whole-cell assay); format: cell-based
T2 construct: host or cells: HepG2 PKM CRISPR KO cells
Protocol: as §1

[4] = tested on: HepG2 de novo lipogenic (DNL) steatosis model; assay: MTT cell viability assay in HepG2 DNL steatosis model; format: cell-based, human
Protocol: HepG2 wild-type cells and HepG2 PKM CRISPR KO cells were purchased from the genome engineering company Synthego (Menlo Park, CA, USA). Cells were maintained with growth media RPMI 1640 (R2405, Sigma-Aldrich) and supplemented with 10% fetal bovine serum (FBS, F7524, Sigma-Aldrich) and 1% P/S (P4333, Sigma-Aldrich). Steatosis induction media was prepared as DMEM high glucose (D0819, Sigma-Aldrich) with 10% FBS, 1% P/S media supplemented with 10 µg/mL insulin (I9278, Sigma-Aldrich), and 10 µM T0901317 (T2320, Sigma-Aldrich) for one week. HepG2 cells were seeded 6 × 10^4 cells per well into a 96-well plate for TAG and MTT assays after steatosis and 1 × 10^6 cells per well into a 6-well plate for western blot analysis after steatosis. […]
HepG2 cells were seeded at 6 × 10^4 cells per well into 96-well plates and induced steatosis for one week with a designated concentration of small molecules. After steatosis induction, cells were washed with 200 µL of PBS, and triglyceride contents were measured by the Triglyceride Assay Kit-Quantification (ab65336, Abcam) following the manufacturer’s instructions. O.D. values were detected with a microplate reader at 570 nm (Hidex Sense Beta Plus). […] Cell viability was analyzed by measuring the absorbance of the dissolved formazan in a microplate reader at a wavelength of 570 nm with a microplate reader (Hidex Sense Beta Plus).

[5] = tested on: PK activity in HepG2 WT cells (PKM and PKL); assay: Pyruvate kinase activity assay on compound-treated HepG2 WT cells; format: cell-based, human; settings: 20 µM, 4 h
Protocol: as §1

[6] = tested on: HepG2 de novo lipogenic (DNL) steatosis model; assay: TAG measurement in HepG2 DNL steatosis model; format: cell-based, human; settings: one week
Protocol: HepG2 wild-type cells and HepG2 PKM CRISPR KO cells were purchased from the genome engineering company Synthego (Menlo Park, CA, USA). Cells were maintained with growth media RPMI 1640 (R2405, Sigma-Aldrich) and supplemented with 10% fetal bovine serum (FBS, F7524, Sigma-Aldrich) and 1% P/S (P4333, Sigma-Aldrich). Steatosis induction media was prepared as DMEM high glucose (D0819, Sigma-Aldrich) with 10% FBS, 1% P/S media supplemented with 10 µg/mL insulin (I9278, Sigma-Aldrich), and 10 µM T0901317 (T2320, Sigma-Aldrich) for one week. HepG2 cells were seeded 6 × 10^4 cells per well into a 96-well plate for TAG and MTT assays after steatosis and 1 × 10^6 cells per well into a 6-well plate for western blot analysis after steatosis. HepG2 cells were incubated with steatosis-inducing media for one week by 3 days + 2 days + 2 days with a total of three media exchanges.
HepG2 cells were seeded at 6 × 10^4 cells per well into 96-well plates and induced steatosis for one week with a designated concentration of small molecules. After steatosis induction, cells were washed with 200 µL of PBS, and triglyceride contents were measured by the Triglyceride Assay Kit-Quantification (ab65336, Abcam) following the manufacturer’s instructions. O.D. values were detected with a microplate reader at 570 nm (Hidex Sense Beta Plus). A 5 mg/mL MTT (M2128, Sigma-Aldrich) solution in PBS (10 µL) was added to each well for the MTT assay. After 1 h, the MTT solution and all media were removed from the wells. 100 μL of DMSO was added and mixed to dissolve the formazan crystals. Cell viability was analyzed by measuring the absorbance of the dissolved formazan in a microplate reader at a wavelength of 570 nm with a microplate reader (Hidex Sense Beta Plus).

[7] = target: T3, PKM (Homo sapiens, UniProt P14618); assay: Cellular Thermal Shift Assay (CETSA), PKM; format: cell-based; settings: HepG2 WT cells, 2 h treatment, 60 °C heat shock 5 min, western blot
T3 construct: HepG2 WT cells were trypsinized and transferred into a 1.5 mL tube; host or cells: HepG2 WT cells
Protocol: (§2) HepG2 WT cells were trypsinized and transferred into a 1.5 mL tube at 500,000 cells per mL concentration. Compound 15e was treated with 10 µM and 20 µM in the 1.5 mL tube and incubated for 2 h in a 37 °C CO2 incubator. Tubes sustained heat shock at 60 °C for 5 min. with a pre-heated heat block. After centrifugation for heated cells at 13,000 rpm for 1 min, cell pellets were lysed with 50 µL of Native lysis Buffer (ab156035, Abcam). Centrifugation was again used to purify soluble proteins in a lysed solution, and the same volume (9 µL) of each group was analyzed using Western blot.

[8] = tested on: ChREBP; assay: Western blot of DNL pathway proteins in HepG2 steatosis model, ChREBP; format: cell-based, human; settings: 5 µM, one week
Protocol: (§3) After steatosis induction with a designated concentration of compounds, whole cell lysate was prepared with CelLytic M (C2978, Sigma-Aldrich) buffer. SDS PAGE was performed using Mini-PROTEAN® TGX™ Precast Gels (Bio-Rad, Hercules, CA, USA) and transferred using the Trans-Blot® Turbo™ Transfer System (Bio-Rad). FASN (ab22759, Abcam), ChREBP (92809, Abcam), PKL (06653, Sigma), PKM (4053S, Cell Signaling Technology, Danvers, MA, USA), β-actin (ab8227, Abcam), and GAPDH (sc-47724, Santa Cruz Biotechnology, Inc., Dallas, TX, USA) were blotted as primary antibodies overnight. Secondary antibodies, Goat Anti-Rabbit HRP (ab205718, Abcam) and goat anti-mouse IgG-HRP (sc2005, Santa Cruz Biotechnology, Inc.), were blotted for one hour. The protein band was detected with ImageQuantTMLAS 500 (29-0050-63, GE Healthcare Bio-Sciences AB, Uppsala, Sweden).

[9] = tested on: PKL; assay: Western blot of DNL pathway proteins in HepG2 steatosis model, PKL; format: cell-based, human; settings: 5 µM, one week
Protocol: as §3

[10] = tested on: PKM; assay: Western blot of DNL pathway proteins in HepG2 steatosis model, PKM; format: cell-based, human; settings: 5 µM, one week
Protocol: as §3

[11] = target: T1, PKL; assay: Cellular Thermal Shift Assay (CETSA), PKL; format: cell-based; settings: HepG2 WT cells, 2 h treatment, 60 °C heat shock 5 min, western blot
Protocol: as §2

[12] = tested on: FASN; assay: Western blot of DNL pathway proteins in HepG2 steatosis model, FASN; format: cell-based, human; settings: 5 µM, one week
Protocol: as §3

[13] = tested on: PKL; set-up: method as in PMID 36753880; settings: 10 μM in liver cell lysate; cited from earlier work
[14] = tested on: PKL; settings: Figure 2, background data; cited from earlier work
[15] = tested on: HepG2 de novo lipogenic (DNL) steatosis model; set-up: method as in PMID 37674987; settings: cited from earlier work

T1 sequence (P30613 1-543 isoform P30613-2): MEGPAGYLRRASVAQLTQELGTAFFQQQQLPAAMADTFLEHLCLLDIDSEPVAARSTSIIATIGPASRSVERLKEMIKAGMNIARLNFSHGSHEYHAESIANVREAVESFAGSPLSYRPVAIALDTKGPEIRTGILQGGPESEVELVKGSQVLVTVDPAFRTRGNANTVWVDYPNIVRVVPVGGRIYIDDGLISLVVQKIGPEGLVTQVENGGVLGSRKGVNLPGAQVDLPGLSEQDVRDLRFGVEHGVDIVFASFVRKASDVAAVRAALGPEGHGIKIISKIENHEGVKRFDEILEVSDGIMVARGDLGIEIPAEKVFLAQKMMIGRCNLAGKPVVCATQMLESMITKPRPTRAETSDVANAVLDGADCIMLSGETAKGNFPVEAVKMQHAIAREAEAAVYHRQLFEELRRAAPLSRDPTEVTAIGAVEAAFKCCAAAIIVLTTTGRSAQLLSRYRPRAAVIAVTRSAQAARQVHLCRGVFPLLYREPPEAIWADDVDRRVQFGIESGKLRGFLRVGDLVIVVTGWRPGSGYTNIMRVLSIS
T2 sequence (P30613 1-543 isoform P30613-2): as above
T3 sequence (P14618 2-531 limits assumed): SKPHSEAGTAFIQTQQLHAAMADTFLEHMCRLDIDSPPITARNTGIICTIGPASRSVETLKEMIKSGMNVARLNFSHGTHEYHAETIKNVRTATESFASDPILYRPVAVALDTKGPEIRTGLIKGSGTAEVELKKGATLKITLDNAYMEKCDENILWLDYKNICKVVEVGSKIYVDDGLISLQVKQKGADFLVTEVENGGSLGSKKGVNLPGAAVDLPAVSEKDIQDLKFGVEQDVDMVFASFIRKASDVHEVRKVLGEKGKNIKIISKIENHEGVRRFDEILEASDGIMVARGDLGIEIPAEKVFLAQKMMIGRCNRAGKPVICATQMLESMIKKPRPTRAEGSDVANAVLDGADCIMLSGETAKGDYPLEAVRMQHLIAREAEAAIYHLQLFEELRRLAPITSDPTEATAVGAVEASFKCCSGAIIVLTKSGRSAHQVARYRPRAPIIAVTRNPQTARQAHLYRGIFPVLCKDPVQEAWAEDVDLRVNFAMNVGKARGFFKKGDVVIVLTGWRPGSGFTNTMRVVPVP

O=S(=O)(NCc1ccccc1)c1cc(O)c(O)cc1-c1ccc(O)c(O)c1 [9d, N-benzyl-3′,4,4′,5-tetrahydroxy-[1,1′-biphenyl]-2-sulfonamide]
inhibition at 10 µM [1]: 40.9%
IC50 [2]: 4.3 µM

O=S(=O)(NCc1ccc(F)cc1)c1cc(O)c(O)cc1-c1ccc(O)c(O)c1 [12d, N-(4-fluorobenzyl)-3′,4,4′,5-tetrahydroxy-[1,1′-biphenyl]-2-sulfonamide]
inhibition at 10 µM [1]: 44.1%
IC50 [2]: 18.7 µM

O=S1(=O)c2cc(O)c(O)cc2-c2cc(O)ccc2N1Cc1ccccc1 [15a, 6-benzyl-2,3,9-trihydroxy-6H-dibenzo[c,e][1,2]thiazine 5,5-dioxide]
inhibition at 10 µM [1]: 47.6%
IC50 [2]: 17.3 µM

O=S1(=O)c2cc(O)c(O)cc2-c2cc(O)c(O)cc2N1Cc1ccccc1 [15d, 6-benzyl-2,3,8,9-tetrahydroxy-6H-dibenzo[c,e][1,2]thiazine 5,5-dioxide]
inhibition at 10 µM [1]: 29.8%
IC50 [2]: 7.1 µM

O=S1(=O)c2cc(O)c(O)cc2-c2ccc(C(F)(F)F)cc2N1Cc1ccccc1 [15e, 6-benzyl-2,3-dihydroxy-8-(trifluoromethyl)-6H-dibenzo[c,e][1,2]thiazine 5,5-dioxide]
inhibition at 10 µM [1]: 42.9%
activity at 20 µM ([3]; 20 µM in culture media for 4 h, HepG2 KO cells): 67.1%
PKL inhibition in whole cells ([3]; 20 µM, 4 h, HepG2 KO cells): significant PKL inhibition
inhibition at 20 µM ([3]; 20 µM, 4 h, HepG2 KO cells (PKL only), Figure 6a, read-out: inhibition of PK activity): 25%
cytotoxicity ([4]; 5 µM to 0.625 µM, one week): did not show cytotoxicity
toxicity ([4]; 10 µM, one-week DNL steatosis procedure): high toxicity
activation of PK activity [5]: 9%
TAG contents ([6]; 0.625 µM): 80.4% ± 3.2
TAG contents ([6]; 1.25 µM): 62.7% ± 2.9
TAG contents ([6]; 2.5 µM): 56.3% ± 1.9
TAG contents ([6]; 5 µM): 55.6% ± 2.4
increase in PKM level (CETSA) [7]: 12%
protein level of ChREBP [8]: remained unaffected
reduction in expression level of PKL [9]: 45%
protein level of PKM [10]: remained unaffected
decrease in PKL level (CETSA) [11]: 38%
reduction in expression level of FASN [12]: up to 79%
IC50 [2]: 10.8 µM

O=S1(=O)c2cc(O)c(O)cc2-c2cc(O)ccc2N1Cc1ccc(F)cc1 [18a, 6-(4-fluorobenzyl)-2,3,9-trihydroxy-6H-dibenzo[c,e][1,2]thiazine 5,5-dioxide]
inhibition at 10 µM [1]: 50.8%
IC50 [2]: 11.5 µM

O=S1(=O)c2cc(O)c(O)cc2-c2ccc(C(F)(F)F)cc2N1Cc1ccc(F)cc1 [18e, 6-(4-fluorobenzyl)-2,3-dihydroxy-8-(trifluoromethyl)-6H-dibenzo[c,e][1,2]thiazine 5,5-dioxide]
melting point: 189 to 190 °C

O=c1oc2c(O)c(O)cc3c(=O)oc4c(O)c(O)cc1c4c23 [Ellagic acid, ellagic acid]
inhibition of PKL [13]: 21%
inhibition on whole cell assay [14]: didn't observe inhibition on whole cell assay

N#Cc1c(NC(=O)c2cccc3ccccc23)sc2c1CCCC2 [JNK-IN-5A]
effect on TAG [15]: reduced TAG

O=c1oc2cc(O)ccc2c2cc(O)c(O)cc12 [Urolithin C, urolithin C, reference compound]
inhibition at 10 µM [1]: 33%
PKL inhibition in whole cells ([3]; 20 µM, 4 h, HepG2 KO cells): did not inhibit PKL activity in cells
inhibition of PKL [13]: 33%
IC50 [2]: 4.7 µM
